Data set [1] deals with P. berghei ANKA sporozoites. The data set is described as follows: murine Plasmodium berghei sporozoite challenge model (prophylaxis efficacy). The data set is classed as in vivo. The conditions noted are these: intramuscular, dose-dependent; mice; FIG. 2. How it is done:
Four- to six-day old Anopheles stephensi adult mosquitoes fasted for 6 h were fed on Swiss Webster mice infected with P. berghei (ANKA 2.34 strain). Fed mosquitoes were maintained for 18 d (19° C., 80% relative humidity), when salivary glands were harvested into RPMI medium and disrupted by several passages through a 0.5 in 28-gauge needle to release sporozoites. Parasites were counted by hemocytometer and diluted to 25,000 mL^−1 RPMI. C57BL6 mice were challenged by intravenous infusion of 5,000 sporozoites in 200 μL RPMI.
(§1) All dosing materials were constituted just before use. Mepron suspension (150 mg/mL atovaquone) was the starting material. Pluronic F-68 (10%) was used to dilute Mepron to required dosing concentration (≤100 mg/mL), or as vehicle control. For the washed drug preparation, atovaquone was pelleted from diluted Mepron (50 mg/mL, 13,000×g, 10 min) and the supernatant was replaced with equal volume 0.9% NaCl. Washing was repeated three times prior to final resuspension of excipient-depleted atovaquone at 50 mg/mL in 0.9% NaCl for dosing. C57BL6 male mice (˜20 g; 3-5 per group) were injected intramuscularly (biceps femoris; 23-gauge needle, 100 μl Hamilton syringe) with diluted or washed Mepron (40 μl total volume, 20 μl per limb). Oral Mepron was administered by gavage. […]

Another data set is described as follows: in vivo. More on the design: species or system mice. The conditions noted are these: male, C57BL6, mouse, im, 200 mg/kg. How it is done:
as §1, with “gavage. At predetermined post-dose intervals, animals were challenged with P. berghei ANKA by infusion of 5,000 sporozoites into a tail vein. Starting 4 d post-challenge then weekly thereafter for 42 d, tail snip blood samples were examined for parasites via Giemsa-stained thin smears. Each experiment included an untreated cohort to validate the challenge. Efficacy outcomes were binary. The appearance of parasitemia in any animal in a cohort was designated a dosing failure.” for “gavage.”

The conditions of data set [2]: cited from earlier work.

Regarding `O=C1C(O)=C([C@H]2CC[C@H](c3ccc(Cl)cc3)CC2)C(=O)c2ccccc21` [atovaquone], the “successful malaria prophylaxis (parasite-free), days post-challenge” value in data set [1] is “up to 42 days”. This compound gave a half-life in the data set “in vivo” of 182 h. In addition, the solubility in water result in data set [2] is reported as “practically insoluble”.
